# Literature values as cited in patent US20230024050A1, “Dermatological Compositions and Methods of Treatment against Cutaneous T-Cell Lymphoma” (Soligenix, Inc., priority 2021, published 2023).
# Like-named read-outs stand apart in the source and are kept apart here.
# Columns and labels:
# [1] = test system: CTCL patients IA, IB, IIA refractory to ≥2 previous treatments; details: at end of therapy, time not stated
# [2] = administered intravenously at much higher doses
SMILES,"Response (CAILS), 24 Week ([1]; 6.5 mg/m^2, N = 15) [%^1]","Response (CAILS), 24 Week ([1]; 300 mg/m^2, N = 28) [%^1]","Response (CAILS), 24 Week ([1]; >300 mg/m^2, N = 15) [%^1]",Significant AEs on intravenous administration [2]
"C=C(c1ccc(C(=O)O)cc1)c1cc2c(cc1C)C(C)(C)CCC2(C)C [Oral Bexarotene, Bexarotene]",20,36,47,–
Cc1cc(O)c2c(=O)c3c(O)cc(O)c4c5c(O)cc(O)c6c(=O)c7c(O)cc(C)c8c1c2c(c34)c(c78)c65 [hypericin],–,–,–,does not cause significant AEs other than those related to photoactivity
